{"source": "paper PMC8460406", "about": "“PET/CT imaging of head-and-neck and pancreatic cancer in humans by targeting the “Cancer Integrin” αvβ6 with Ga-68-Trivehexin” (European Journal of Nuclear Medicine and Molecular Imaging, 2021)", "key": {"αvβ6-integrin [1]": {"molecular_target": "T1, αvβ6-integrin (Homo sapiens, UniProt P06756+P18564)", "T1 sequence (P06756 31-992 limits assumed)": "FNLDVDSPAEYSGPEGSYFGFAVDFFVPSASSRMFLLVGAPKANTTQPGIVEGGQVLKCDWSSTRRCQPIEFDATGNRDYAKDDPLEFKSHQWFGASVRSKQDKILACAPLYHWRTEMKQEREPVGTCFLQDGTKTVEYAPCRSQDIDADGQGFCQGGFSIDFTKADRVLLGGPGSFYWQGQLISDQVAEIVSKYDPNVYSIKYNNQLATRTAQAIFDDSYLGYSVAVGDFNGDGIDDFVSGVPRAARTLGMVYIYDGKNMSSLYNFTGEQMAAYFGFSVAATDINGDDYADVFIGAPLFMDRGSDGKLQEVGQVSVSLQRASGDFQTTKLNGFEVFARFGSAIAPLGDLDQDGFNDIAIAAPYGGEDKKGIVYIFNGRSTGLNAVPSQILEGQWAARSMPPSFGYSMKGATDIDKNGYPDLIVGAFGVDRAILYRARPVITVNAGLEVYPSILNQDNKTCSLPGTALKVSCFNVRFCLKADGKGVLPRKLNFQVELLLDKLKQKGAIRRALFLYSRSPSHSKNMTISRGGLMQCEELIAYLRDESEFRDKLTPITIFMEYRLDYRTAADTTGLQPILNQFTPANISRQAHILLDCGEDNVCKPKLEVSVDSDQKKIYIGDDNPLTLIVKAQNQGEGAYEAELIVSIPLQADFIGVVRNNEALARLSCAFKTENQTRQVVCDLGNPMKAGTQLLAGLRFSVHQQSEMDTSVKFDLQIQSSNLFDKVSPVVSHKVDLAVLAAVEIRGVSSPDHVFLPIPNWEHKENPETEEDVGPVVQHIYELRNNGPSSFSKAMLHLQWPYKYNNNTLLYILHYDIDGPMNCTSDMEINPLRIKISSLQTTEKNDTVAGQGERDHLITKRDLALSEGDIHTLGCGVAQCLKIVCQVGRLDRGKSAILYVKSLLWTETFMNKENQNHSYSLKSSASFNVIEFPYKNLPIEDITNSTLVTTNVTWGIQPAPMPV", "T1 sequence (P18564 22-707 limits assumed)": "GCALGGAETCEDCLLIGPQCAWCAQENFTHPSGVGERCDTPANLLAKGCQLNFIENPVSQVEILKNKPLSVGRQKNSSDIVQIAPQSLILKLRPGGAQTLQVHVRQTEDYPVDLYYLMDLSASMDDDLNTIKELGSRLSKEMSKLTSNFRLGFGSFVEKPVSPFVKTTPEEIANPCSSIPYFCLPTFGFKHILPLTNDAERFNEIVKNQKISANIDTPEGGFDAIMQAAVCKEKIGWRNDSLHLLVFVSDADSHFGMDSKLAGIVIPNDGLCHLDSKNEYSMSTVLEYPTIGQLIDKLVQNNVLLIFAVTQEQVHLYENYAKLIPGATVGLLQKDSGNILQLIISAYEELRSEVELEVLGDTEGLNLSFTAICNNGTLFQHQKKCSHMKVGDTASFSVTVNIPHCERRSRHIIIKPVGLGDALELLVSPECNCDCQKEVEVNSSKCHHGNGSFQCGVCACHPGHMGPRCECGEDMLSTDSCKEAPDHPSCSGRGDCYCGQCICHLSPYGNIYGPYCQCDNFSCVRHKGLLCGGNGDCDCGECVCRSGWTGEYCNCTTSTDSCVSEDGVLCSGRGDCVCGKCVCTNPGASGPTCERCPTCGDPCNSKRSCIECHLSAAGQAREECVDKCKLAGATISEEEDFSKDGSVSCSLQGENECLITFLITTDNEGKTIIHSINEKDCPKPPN", "test": "ELISA on immobilized integrins (integrin affinity), αvβ6", "assay_type": "binding", "settings": "95% confidence interval in parentheses", "excerpt": "(§1) Materials, reagents, general procedures, and instrumentation used for chemical syntheses and analyses have been detailed elsewhere. In addition to what has been reported before, the building block TRAP(azide)3 was purchased from Fosfinos s.r.o. (Kladno, CZ). c[FGDLAFp(NMe)K(pentynoic amide)] and TRAP(AvB6)3 were synthesized according to the literature. Previously described protocols were followed for determination of integrin affinities by ELISA on immobilized integrins and for β6-integrin immunohistochemistry (IHC)."}, "αvβ8-integrin": {"molecular_target": "αvβ8-integrin (Homo sapiens, UniProt P06756+P26012)", "sequence (P06756 31-992 limits assumed)": "as the sequence (P06756 31-992 limits assumed) above", "sequence (P26012 43-684 limits assumed)": "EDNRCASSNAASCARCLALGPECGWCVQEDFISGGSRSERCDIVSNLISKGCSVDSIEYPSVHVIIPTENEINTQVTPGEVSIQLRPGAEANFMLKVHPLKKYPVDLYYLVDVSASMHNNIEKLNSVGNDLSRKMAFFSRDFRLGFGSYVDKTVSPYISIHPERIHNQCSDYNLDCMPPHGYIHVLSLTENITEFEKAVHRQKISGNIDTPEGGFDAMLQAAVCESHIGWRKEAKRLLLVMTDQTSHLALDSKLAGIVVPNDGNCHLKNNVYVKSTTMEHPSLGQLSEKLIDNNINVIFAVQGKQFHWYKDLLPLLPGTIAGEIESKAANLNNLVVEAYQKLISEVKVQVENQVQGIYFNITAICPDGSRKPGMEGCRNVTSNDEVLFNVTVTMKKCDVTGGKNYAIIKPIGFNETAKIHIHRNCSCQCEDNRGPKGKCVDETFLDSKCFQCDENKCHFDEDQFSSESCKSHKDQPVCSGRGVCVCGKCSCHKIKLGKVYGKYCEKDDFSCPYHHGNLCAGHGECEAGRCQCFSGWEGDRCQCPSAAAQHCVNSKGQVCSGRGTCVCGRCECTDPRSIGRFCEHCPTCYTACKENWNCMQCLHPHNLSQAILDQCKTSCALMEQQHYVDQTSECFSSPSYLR", "test": "ELISA on immobilized integrins (integrin affinity), αvβ8", "assay_type": "binding", "settings": "for IC50: 95% confidence interval in parentheses; for αvβ6-selectivity over αvβ8: IC50-based factor", "excerpt": "as §1"}, "αvβ3-integrin": {"molecular_target": "αvβ3-integrin (Homo sapiens, UniProt P05106+P06756)", "test": "ELISA on immobilized integrins (integrin affinity), αvβ3", "assay_type": "binding", "settings": "for IC50: 95% confidence interval in parentheses; for αvβ6-selectivity over αvβ3: IC50-based factor", "excerpt": "as §1"}, "α5β1-integrin": {"molecular_target": "α5β1-integrin (Homo sapiens, UniProt P05556+P08648)", "sequence (P08648 42-995 limits assumed)": "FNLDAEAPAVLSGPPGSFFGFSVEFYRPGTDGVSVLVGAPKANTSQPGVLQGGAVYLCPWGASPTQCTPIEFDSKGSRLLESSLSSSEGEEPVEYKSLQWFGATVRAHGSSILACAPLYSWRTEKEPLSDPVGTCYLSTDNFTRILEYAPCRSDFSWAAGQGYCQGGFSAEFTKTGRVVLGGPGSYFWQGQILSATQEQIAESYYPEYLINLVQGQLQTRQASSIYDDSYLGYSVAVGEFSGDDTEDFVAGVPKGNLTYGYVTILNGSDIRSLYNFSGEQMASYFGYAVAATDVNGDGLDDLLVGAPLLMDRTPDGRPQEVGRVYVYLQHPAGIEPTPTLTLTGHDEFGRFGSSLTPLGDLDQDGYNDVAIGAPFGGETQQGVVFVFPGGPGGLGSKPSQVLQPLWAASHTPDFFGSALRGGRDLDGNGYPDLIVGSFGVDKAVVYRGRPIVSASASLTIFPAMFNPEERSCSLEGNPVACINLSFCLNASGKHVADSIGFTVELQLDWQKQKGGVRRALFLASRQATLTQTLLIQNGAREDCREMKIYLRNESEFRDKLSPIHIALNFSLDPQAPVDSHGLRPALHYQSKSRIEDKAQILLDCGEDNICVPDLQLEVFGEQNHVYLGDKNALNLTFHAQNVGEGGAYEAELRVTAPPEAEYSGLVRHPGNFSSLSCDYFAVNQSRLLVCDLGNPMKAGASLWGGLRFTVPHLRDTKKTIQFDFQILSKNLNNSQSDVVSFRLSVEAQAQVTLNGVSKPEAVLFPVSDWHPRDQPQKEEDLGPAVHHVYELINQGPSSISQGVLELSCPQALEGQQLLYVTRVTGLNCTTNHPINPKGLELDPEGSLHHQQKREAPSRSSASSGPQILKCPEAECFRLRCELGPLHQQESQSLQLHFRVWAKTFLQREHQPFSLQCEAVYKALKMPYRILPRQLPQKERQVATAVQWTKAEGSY", "sequence (P05556 21-728 limits assumed)": "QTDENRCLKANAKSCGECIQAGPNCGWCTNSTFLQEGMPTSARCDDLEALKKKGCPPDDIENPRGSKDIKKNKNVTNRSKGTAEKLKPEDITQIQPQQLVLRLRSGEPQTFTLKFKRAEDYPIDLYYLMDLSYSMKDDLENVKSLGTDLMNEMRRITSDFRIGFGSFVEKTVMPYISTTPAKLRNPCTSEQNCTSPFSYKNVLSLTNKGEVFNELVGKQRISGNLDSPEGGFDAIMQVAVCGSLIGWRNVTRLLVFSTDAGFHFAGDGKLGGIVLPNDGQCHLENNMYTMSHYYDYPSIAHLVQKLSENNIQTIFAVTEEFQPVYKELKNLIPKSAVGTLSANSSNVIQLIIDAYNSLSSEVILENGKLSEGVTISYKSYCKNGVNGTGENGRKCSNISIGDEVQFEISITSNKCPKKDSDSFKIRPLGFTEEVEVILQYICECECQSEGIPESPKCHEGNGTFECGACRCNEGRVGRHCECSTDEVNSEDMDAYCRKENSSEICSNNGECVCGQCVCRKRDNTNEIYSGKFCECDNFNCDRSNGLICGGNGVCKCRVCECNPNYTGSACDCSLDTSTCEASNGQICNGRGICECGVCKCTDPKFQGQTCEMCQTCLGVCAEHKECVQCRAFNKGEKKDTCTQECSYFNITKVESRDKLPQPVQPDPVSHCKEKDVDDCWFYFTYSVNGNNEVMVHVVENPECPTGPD", "test": "ELISA on immobilized integrins (integrin affinity), α5β1", "assay_type": "binding", "settings": "for αvβ6-selectivity over α5β1: IC50-based factor", "excerpt": "as §1"}, "[2]": {"system": "αvβ6-integrin expressing carcinomas", "test": "PET/CT imaging of carcinomas in human (HNSCC, parotideal adenocarcinoma, PDAC)", "assay_type": "in vivo", "method": "All human participants provided written informed consent, also for publication of images, prior to the investigation. […] No significant changes in vital signs or the results of laboratory studies or electrocardiograms were observed. Data for a total of 4 human subjects were included in this report. The PET/CT for patient #1 was performed according to a previously published protocol, as was calculation of the dosimetric parameters.\nA panendoscopy and tracheostomy were carried out 4 weeks prior to the [^18F]FDG. The tumor was not suitable for surgical removal and a simultaneous radiochemotherapy was indicated.\nPatient #3 (Fig. 4C–E) was diagnosed with an adenocarcinoma (salivary duct carcinoma) in the right […] in 2019 and initially underwent total parotidectomy and unilateral neck dissection (pT2 pN1b [21/23] L1 V1 Pn1 R1). A post-resection and contralateral neck-dissection was performed 1 month later, followed by adjuvant radiation. In 2020 the patient developed prelaryngeal and lateral orbita angle metastases, which were resected and adjuvantly irradiated. […] Since no further tumor manifestations were present in both examinations, surgical resection was indicated and performed. β6-integrin IHC [21] was done for specimen of the excised metastasis.\nPatient #4 was diagnosed with a carcinoma of the pancreatic head by endosonography and CT morphology. Pancreatic adenocarcinoma was verified by biopsy. […] According to this finding, surgical treatment was rejected and a chemotherapy regimen was started."}, "[3]": {"assay_type": "physicochemical", "settings": "pH 7.4", "excerpt": "Radiolabeling for preclinical experiments and determination of n-octanol–PBS distribution coefficients (log D7.4) was done as described. Applying this protocol, 5 nmol (0.5 nmol for cellular assays in order to maximize molar activity) of TRAP(AvB6)3 or Trivehexin were labeled with ^68 Ga at pH 2, resulting in RCY > 95%. The purity of the radiolabeled compounds was confirmed by radio-TLC, using silica impregnated glass fiber chromatography paper (ITLC® by Agilent) as stationary phase and 0.1 M aq. sodium citrate as mobile phase (purities were > 99%)."}, "in vivo": {"test": "in vivo", "settings": "SCID, mouse, total radioactivity", "excerpt": "All animal experiments were approved by the responsible authority (Regierung von Oberbayern) and have been performed in accordance with general animal welfare regulations in Germany and the institutional guidelines for the care and use of animals. Keeping of the animals, generation of subcutaneous H2009 and MDA-MB-231 tumor xenografts, ex-vivo biodistribution studies, and µPET imaging were done according to previously described protocols. Multiplicity of PET and biodistribution studies ranged from 3 to 5; animal numbers for each individual experiment are denoted in the respective data tables in the Supporting Information and, additionally, in the Results section."}, "αvβ6-integrin [4]": {"molecular_target": "T1, αvβ6-integrin", "settings": "cited from earlier work"}, "[5]": {"settings": "ref [34], read-out: IC50 (αvβ6-integrin affinity)"}}, "note": "Where two headings read alike, the source gives them in different places.", "data": [{"molecule": "C#CCCC(=O)NCCCC[C@H]1C(=O)N[C@@H](Cc2ccc(O)cc2)C(=O)N[C@@H](CCCNC(=N)N)C(=O)NCC(=O)N[C@@H](CC(=O)O)C(=O)N[C@@H](CC(C)C)C(=O)N[C@@H](C)C(=O)N[C@@H](Cc2ccc(O)cc2)C(=O)N2CCC[C@@H]2C(=O)N1C", "note": "[Tyr2-alkyne, c[YRGDLAYp(NMe)K(pentynoic amide)]]", "values": [{"measurement": "IC50", "setting": "αvβ6-integrin [1]", "value": 0.84, "unit": "nM"}, {"measurement": "IC50", "setting": "αvβ8-integrin", "value": 26, "unit": "nM"}, {"measurement": "αvβ6-selectivity over αvβ8", "setting": "αvβ8-integrin", "value": 31}, {"measurement": "IC50", "setting": "αvβ3-integrin", "value": 219, "unit": "nM"}, {"measurement": "αvβ6-selectivity over αvβ3", "setting": "αvβ3-integrin", "value": 261}, {"measurement": "IC50", "setting": "α5β1-integrin; 95% confidence interval in parentheses", "value": 150, "unit": "nM"}, {"measurement": "αvβ6-selectivity over α5β1", "setting": "α5β1-integrin", "value": 179}]}, {"molecule": "OC[C@H]1OC(O)[C@H]([18F])[C@@H](O)[C@@H]1O", "note": "(some centres unmarked) [[^18F]FDG]", "values": [{"measurement": "SUVmax around 7-week-old tracheostoma (inflammation)", "setting": "[2]; patient #2, 61-62 min p.i.", "value": 10.2}, {"measurement": "SUVmax prelaryngeal cutaneous metastasis of parotideal adenocarcinoma", "setting": "[2]; patient #3, 67-71 min p.i.", "value": 6.1}, {"measurement": "metabolic tumor volume", "setting": "[2]; patient #3, prelaryngeal cutaneous metastasis", "value": 2.2, "unit": "cm^3"}]}, {"molecule": "CC(C)C[C@@H]1NC(=O)[C@H](CC(=O)O)NC(=O)CNC(=O)[C@H](CCCNC(=N)N)NC(=O)[C@H](Cc2ccccc2)NC(=O)[C@H](CCCCNC(=O)CCc2cn(CCCNC(=O)CCP(=O)(O)CN3CCN(CP(=O)(O)CCC(=O)NCCCn4cc(CCC(=O)NCCCC[C@H]5C(=O)N[C@@H](Cc6ccccc6)C(=O)N[C@@H](CCCNC(=N)N)C(=O)NCC(=O)N[C@@H](CC(=O)O)C(=O)N[C@@H](CC(C)C)C(=O)N[C@@H](C)C(=O)N[C@@H](Cc6ccccc6)C(=O)N6CCC[C@@H]6C(=O)N5C)nn4)CCN(CP(=O)(O)CCC(=O)NCCCn4cc(CCC(=O)NCCCC[C@H]5C(=O)N[C@@H](Cc6ccccc6)C(=O)N[C@@H](CCCNC(=N)N)C(=O)NCC(=O)N[C@@H](CC(=O)O)C(=O)N[C@@H](CC(C)C)C(=O)N[C@@H](C)C(=O)N[C@@H](Cc6ccccc6)C(=O)N6CCC[C@@H]6C(=O)N5C)nn4)CC3)nn2)N(C)C(=O)[C@H]2CCCN2C(=O)[C@H](Cc2ccccc2)NC(=O)[C@H](C)NC1=O", "note": "[^68 Ga-TRAP(AvB6)3]", "values": [{"measurement": "n-octanol-PBS distribution coefficient log D7.4", "setting": "[3]", "value": "− 1.5 ± 0.1"}, {"measurement": "tissue to tissue ratio at 1.5 h", "setting": "in vivo; tumor/organ ratio Adrenals", "value": 3.7}, {"measurement": "tissue to tissue ratio at 1.5 h", "setting": "in vivo; tumor/organ ratio Blood", "value": 2.2}, {"measurement": "tissue to tissue ratio at 1.5 h", "setting": "in vivo; tumor/organ ratio Heart (myocard)", "value": 4.2}, {"measurement": "tissue to tissue ratio at 1.5 h", "setting": "in vivo; tumor/organ ratio Kidneys", "value": 0.1}, {"measurement": "tissue to tissue ratio at 1.5 h", "setting": "in vivo; tumor/organ ratio Large intestine (empty)", "value": 1.6}, {"measurement": "tissue to tissue ratio at 1.5 h", "setting": "in vivo; tumor/organ ratio Liver", "value": 1.2}, {"measurement": "tissue to tissue ratio at 1.5 h", "setting": "in vivo; tumor/organ ratio Lung", "value": 0.6}, {"measurement": "tissue to tissue ratio at 1.5 h", "setting": "in vivo; tumor/organ ratio Muscle", "value": 8.1}, {"measurement": "tissue to tissue ratio at 1.5 h", "setting": "in vivo; tumor/organ ratio Pancreas", "value": 10.1}, {"measurement": "tissue to tissue ratio at 1.5 h", "setting": "in vivo; tumor/organ ratio Small intestine (empty)", "value": 2.2}, {"measurement": "tissue to tissue ratio at 1.5 h", "setting": "in vivo; tumor/organ ratio Spleen", "value": 1.7}, {"measurement": "tissue to tissue ratio at 1.5 h", "setting": "in vivo; tumor/organ ratio Stomach (empty)", "value": 0.9}, {"measurement": "IC50", "setting": "αvβ6-integrin [4]; ref [17], read-out: αvβ6-integrin affinity", "value": 0.023, "unit": "nM"}]}, {"molecule": "C#CCCC(=O)NCCCC[C@H]1C(=O)N[C@@H](Cc2ccccc2)C(=O)N[C@@H](CCCNC(=N)N)C(=O)NCC(=O)N[C@@H](CC(=O)O)C(=O)N[C@@H](CC(C)C)C(=O)N[C@@H](C)C(=O)N[C@@H](Cc2ccccc2)C(=O)N2CCC[C@@H]2C(=O)N1C", "note": "[c[FRGDLAFp(NMe)K(pentynoic amide)], reference compound]", "values": [{"measurement": "IC50", "setting": "αvβ6-integrin [1]", "value": 0.17, "unit": "nM"}, {"measurement": "IC50", "setting": "αvβ8-integrin", "value": 32, "unit": "nM"}, {"measurement": "αvβ6-selectivity over αvβ8", "setting": "αvβ8-integrin", "value": 188}, {"measurement": "IC50", "setting": "αvβ3-integrin", "value": 424, "unit": "nM"}, {"measurement": "αvβ6-selectivity over αvβ3", "setting": "αvβ3-integrin", "value": 2494}, {"measurement": "αvβ6-selectivity over α5β1", "setting": "α5β1-integrin", "value": 1329}]}, {"molecule": "c[FRGDLAYp(NMe)K] (FRGDLAYPK; HELM PEPTIDE1{F.R.G.D.L.A.Y.[dP].[meK]}$PEPTIDE1,PEPTIDE1,1:R1-9:R2$$$V2.0; SMILES CC(C)C[C@@H]1NC(=O)[C@H](CC(=O)O)NC(=O)CNC(=O)[C@H](CCCNC(=N)N)NC(=O)[C@H](Cc2ccccc2)NC(=O)[C@H](CCCCN)N(C)C(=O)[C@H]2CCCN2C(=O)[C@H](Cc2ccc(O)cc2)NC(=O)[C@H](C)NC1=O)", "values": [{"measurement": "IC50", "setting": "αvβ6-integrin [4]; [5]", "value": 0.39, "unit": "nM"}]}, {"molecule": "c[YRGDLAFp(NMe)K] (YRGDLAFPK; HELM PEPTIDE1{Y.R.G.D.L.A.F.[dP].[meK]}$PEPTIDE1,PEPTIDE1,1:R1-9:R2$$$V2.0; SMILES CC(C)C[C@@H]1NC(=O)[C@H](CC(=O)O)NC(=O)CNC(=O)[C@H](CCCNC(=N)N)NC(=O)[C@H](Cc2ccc(O)cc2)NC(=O)[C@H](CCCCN)N(C)C(=O)[C@H]2CCCN2C(=O)[C@H](Cc2ccccc2)NC(=O)[C@H](C)NC1=O)", "values": [{"measurement": "IC50", "setting": "αvβ6-integrin [4]; [5]", "value": 0.4, "unit": "nM"}]}]}
